Source: US9102648B1, “Bioavailable diacylhydrazine ligands for modulating the expression of exogenous genes via an ecdysone receptor complex” (Intrexon Corporation, priority 2003, dated 2015)

Target: T1, Bombyx mori EcR (VP16 fusion, CVBE switch construct) (Bombyx mori, UniProt P49881)
T1 sequence (P49881 86-606): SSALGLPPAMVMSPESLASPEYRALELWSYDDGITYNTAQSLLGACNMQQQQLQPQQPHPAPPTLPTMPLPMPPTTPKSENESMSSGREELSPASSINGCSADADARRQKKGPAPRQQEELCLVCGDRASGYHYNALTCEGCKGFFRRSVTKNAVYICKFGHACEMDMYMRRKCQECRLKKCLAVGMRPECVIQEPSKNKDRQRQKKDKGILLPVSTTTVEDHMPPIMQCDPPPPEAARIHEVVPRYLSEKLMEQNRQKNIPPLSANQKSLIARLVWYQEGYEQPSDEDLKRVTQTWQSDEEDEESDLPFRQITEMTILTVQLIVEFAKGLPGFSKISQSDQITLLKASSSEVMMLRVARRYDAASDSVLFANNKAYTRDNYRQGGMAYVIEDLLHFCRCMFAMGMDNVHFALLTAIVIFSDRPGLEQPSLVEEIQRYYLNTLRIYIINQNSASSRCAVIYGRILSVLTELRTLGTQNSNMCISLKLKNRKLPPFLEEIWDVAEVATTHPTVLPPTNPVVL
T1 sequence (P19793 1-462 partner): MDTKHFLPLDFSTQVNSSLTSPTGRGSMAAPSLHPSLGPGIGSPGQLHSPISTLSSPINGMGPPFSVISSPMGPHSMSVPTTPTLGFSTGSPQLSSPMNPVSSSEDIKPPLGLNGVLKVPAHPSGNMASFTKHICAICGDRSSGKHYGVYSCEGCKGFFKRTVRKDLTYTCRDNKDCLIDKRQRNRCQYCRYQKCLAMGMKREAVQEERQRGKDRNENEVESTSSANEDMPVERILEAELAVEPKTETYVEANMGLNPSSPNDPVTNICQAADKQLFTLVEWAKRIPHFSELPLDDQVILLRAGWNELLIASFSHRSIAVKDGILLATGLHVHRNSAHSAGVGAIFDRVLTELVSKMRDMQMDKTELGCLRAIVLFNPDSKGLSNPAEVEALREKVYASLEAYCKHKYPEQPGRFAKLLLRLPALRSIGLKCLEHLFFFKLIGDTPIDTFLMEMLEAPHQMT
Assay: Z3 Assay (HEK-293 cells with CVBE and 6XEcRE LacZ, β-galactosidase reporter)
Settings: for Fold Induction, Z3 Assay, 3.3 uM: 3.3 uM ligand; for Z3 assay Rel Max FI: maximum fold induction at any concentration relative to that of GS-E ligand; for Z3 assay Rel Max FI / EC50: HEK-293 Z3 cells; for EC50: read-out: Z3 assay EC50, β-galactosidase reporter
Text: Dr. F. Gage provided a population of stably transformed cells containing CVBE and 6XEcRE as described in Suhr, S. T., Gil, E. B., Senut M. C., Gage, F. H. (1998) Proc. Natl. Acad. Sci. USA 95, 7999-804. Human 293 kidney cells, also referred to as HEK-293 cells, were sequentially infected with retroviral vectors encoding first the switch construct CVBE, and subsequently the reporter construct 6XEcRE Lac Z. The switch construct contained the coding sequence for amino acids 26-546 from Bombyx mori EcR (BE) (Iatrou) inserted in frame and downstream of the VP16 transactivation domain (VBE). A synthetic ATG start codon was placed under the control of cytomegalovirus (CVBE) immediate early promoter and flanked by long terminal repeats (LTR). The reporter construct contained six copies of the ecdysone response element (EcRE) binding site placed upstream of LacZ and flanked on both sides with LTR sequences (6XEcRE).
Dilution cloning was used to isolate individual clones. Clones were selected using 450 ug/mL G418 and 100 ng/mL puromycin. Individual clones were evaluated based on their response in the presence and absence of test ligands.
Human 293 kidney cells stably transformed with CVBE and 6XEcRE LacZ were maintained in Minimum Essential Medium (Mediates, 10-010-CV) containing 10% FBS (Life Technologies, 26140-087), […] G418 (Mediates, 30-234-CR), and […] (Sigma, P-7255), at 37° C. in an atmosphere containing 5% CO2 and were subculture when they reached 75% confluence.
Z3 cells were seeded into 96-well tissue culture plates at a concentration of 2.5×10^3 cells per well and incubated at 37° C. in 5% CO2 for twenty-four hours. Stock solutions of ligands were prepared in DMSO. Ligand stock solutions were diluted 100 fold in media and 50 μL of this diluted ligand solution ([…]) was added to cells. The final concentration of DMSO was maintained at 0.03% in both controls and treatments.
Reporter gene expression was evaluated 48 hours after treatment of cells, β-galactosidase activity was measured using Gal Screen™ bioluminescent reporter gene assay system from Tropix (GSY1000). Fold induction activities were calculated by dividing relative light units (“RLU”) in ligand treated cells with RLU in DMSO treated cells. Luminescence was detected at room temperature using a Dynex MLX microtiter plate luminometer.
Flanking both constructs are long terminal repeats, G418 and puromycin are selectable markers, CMV is the cytomegalovirus promoter, VBE is coding sequence for amino acids 26-546 from Bombyx mori EcR inserted downstream of the VP16 transactivation domain, 6×EcRE is six copies of the ecdysone response element, lacZ encodes for the reporter enzyme β-galactosidase.
Each assay was conducted in two separate wells, and the two values were averaged. Fold inductions were calculated by dividing relative light units (“RLU”) in ligand treated cells with RLU in DMSO treated cells. EC50s were calculated from dose response data using a three-parameter logistic model.

[1] = ligand treated / DMSO treated cells, average of two wells

Structure (SMILES)	Fold Induction, Z3 Assay, 3.3 uM [1]	Z3 assay Rel Max FI	EC50 (average of two wells) [nM]	Fold Induction, Z3 Assay, 33 uM (33 uM ligand, ligand treated / DMSO treated cells, average of two wells)
CCc1ccc(C(=O)NN(C(=O)c2cc(C)nc(Cl)c2)C(C)(C)C)c(F)c1 [RG-115112]	618	0.618	309	
CCc1ccc(C(=O)NN(C(=O)c2cccc(OC)c2)C(C)(C)C)c(F)c1 [RG-115269]	112	0.552	437	
CCc1c(OC)cccc1C(=O)NN(C(=O)c1cc2ccccc2n1C)C(C)(C)C [RG-115106, N′-2-Ethyl-3-methoxybenzoyl-N-t-butyl-N-(N-methylindole-2-carbonyl) hydrazide]	68	0.457	2570	
COc1cc(C(=O)N(NC(=O)c2ccc3c(c2Cl)COCO3)C(C)(C)C)cc(OC)c1C [RG-115441]	118	0.759	126	
CCc1ccc(C(=O)NN(C(=O)c2cc(Cl)nc(Cl)c2)C(C)(C)C)c(F)c1 [RG-115128]	110	0.538	245	
CCc1c(OC)cccc1C(=O)NN(C(=O)c1nn(C(c2ccccc2)(c2ccccc2)c2ccccc2)c2ccccc12)C(C)(C)C [RG-115722]				1
CCc1ccc(C(=O)NN(C(=O)c2cccc([N+](=O)[O-])c2)C(C)(C)C)c(F)c1 [RG-115167]	73	0.533	240	
Cc1cc(C)cc(C(=O)N(NC(=O)c2ccc3c(c2)OC(F)(F)O3)C(C)(C)C)c1 [RG-115256]	647	0.527	692	
CCc1c(OC)cccc1C(=O)NN(C(=O)c1cccc2c1OCO2)C(C)(C)C [RG-115496]	874	0.878	1180	
CC(C)(C)N(NC(=O)c1ccc2c(c1)OC(F)(F)O2)C(=O)c1ccccc1[N+](=O)[O-] [RG-115352]	7	0.265	45700	
COCc1c(OC)cccc1C(=O)NN(C(=O)c1cc(Cl)cc(Cl)c1)C(C)(C)C [RG-115306]	5	0.424	3470	
